Experimental data published in PMC6254802, “Development of a High-Throughput Assay for Screening of γ-Secretase Inhibitor with Endogenous Human, Mouse or Drosophila γ-Secretase” (Molecules, 2009).
Read-outs that look alike come from different tables or passages of the source.

Assays:
[1] = molecular target: mouse γ-secretase; assay: Fluorogenic substrate assay with mouse γ-secretase from mouse cortex membrane; assay type: biochemical; settings: mean ± SEM, n = 3
Description: All procedures were carried out at 4 °C. HEK 293T or S2 cells were washed with ice-cold PBS by centrifugation at 500 g for 5 min and the pellets were homogenized with a Dounce homogenizer (pestle B, 15 strokes) in lysis buffer contained 5 mM Tris-HCl (pH 7.4), 5 mM EDTA, 5 mM EGTA and Complete^TM protease inhibitor cocktail. Mouse cortex was homogenized with 15 stokes of pestle A in the same lysis buffer. The homogenates were centrifuged at 800 g for 10 min to remove nuclei and large debris. The supernatants were centrifuged at 25,000 g for 1 h at 4 °C and the membrane pellets were resuspended in reaction buffer containing 50 mM Tris-HCl (pH 6.8), 2 mM EDTA, 150 mM KCl and Complete^TM protease inhibitor cocktail. After measuring the protein concentration, the membranes were diluted to 1 mg/ml in 50 mM Tris-HCl, pH 6.8, 2 mM EDTA, 150 mM KCl, 0.25% CHAPSO.
For assay optimization, aliquots of membrane protein (5~30 μg) was added to each well of a 96-well plate with various concentrations of fluorogenic substrate (4~8 μM). Different concentrations of compounds were added and the final reaction system was adjusted to 100 μL/well with the reaction buffer. The plate was incubated at 37 °C in a humidified atmosphere for indicated time periods. Fluorescence was measured using a BIOTEK FLX800 microplate reader with the excitation wavelength at 355 nm and the emission wavelength at 440 nm. The activity of γ-secretase was presented as the relative fluorescent unit (RFU). For compound screening, 1 μM of L685,458 was used as a positive control, and 1% DMSO was used as negative control. The inhibition rate of each compound was calculated with the following equation: InhibitionCompound % = (Average Value1%DMSO-Average Value Compound)/(Average Value1%DMSO-Average ValueL685,458) × 100%. So the inhibition rate of 1 μM L685,458 is 100% and that of 1% DMSO is 0. The samples showing more than 60% inhibition were considered as “hits” in the screening.
(§1) Data were analyzed with GraphPad Prism software (GraphPad, San Diego, CA, USA). Non-linear regression analyses were performed to generate dose-response curves and calculate IC50 values, and linear regression was used to analyze data reproducibility. Mean ± SEM was calculated automatically with this software. Z’ factor was calculated by the following equation: Z’ = 1 - (3SD++3SD-) / │Ave+ - Ave-│ in which SD+ is the standard deviation of positive control, SD-is the standard deviation of negative control, Ave+ is the mean value of the positive control, and Ave-is the mean value of the negative control.

[2] = molecular target: T1, drosophila γ-secretase (Drosophila melanogaster, UniProt O02194); assay: Fluorogenic substrate assay with drosophila γ-secretase from S2 cell membrane; assay type: biochemical
T1 construct: membrane containing drosophila or mouse γ-secretase was isolated from S2 cells or mouse cortex, respectively; host or cells: Drosophila Schneider 2 (S2) cells, membrane fraction

[3] = molecular target: γ-secretase (Aβ); settings: In vivo γ-secretase assay; read-out: Reported IC50 (Aβ); cited from earlier work
[4] = molecular target: T2, human γ-secretase (Homo sapiens, UniProt P49768); assay: Fluorogenic substrate assay with endogenous human γ-secretase from HEK293T cell membrane; assay type: biochemical; settings: for IC50: 10 μg membrane protein, 6 μM substrate, 5 h, 37 °C, mean ± SEM; for maximal inhibition: human γ-secretase, relative to 1 μM L685,458 = 100%
T2 construct: endogenously expressing human γ-secretase from HEK293T cell membrane; endogenous in cells; host or cells: HEK293T cells (membrane fraction, solubilised with 0.25% CHAPSO)
Description: All procedures were carried out at 4 °C. […] Mouse cortex was homogenized with 15 stokes of pestle A in the same lysis buffer. The homogenates were centrifuged at 800 g for 10 min to remove nuclei and large debris. The supernatants were centrifuged at 25,000 g for 1 h at 4 °C and the membrane pellets were resuspended in reaction buffer containing 50 mM Tris-HCl (pH 6.8), 2 mM EDTA, 150 mM KCl and Complete^TM protease inhibitor cocktail.
For assay optimization, aliquots of membrane protein (5~30 μg) was added to each well of a 96-well plate with various concentrations of fluorogenic substrate (4~8 μM). Different concentrations of compounds were added and the final reaction system was adjusted to 100 μL/well with the reaction buffer. The plate was incubated at 37 °C in a humidified atmosphere for indicated time periods. Fluorescence was measured using a BIOTEK FLX800 microplate reader with the excitation wavelength at 355 nm and the emission wavelength at 440 nm. The activity of γ-secretase was presented as the relative fluorescent unit (RFU). For compound screening, 1 μM of L685,458 was used as a positive control, and 1% DMSO was used as negative control.
as §1

[5] = molecular target: γ-secretase (Aβ40, Aβ42); set-up: method as in PMID 15341524; settings: Aβ ELISA assay, cited from earlier work
[6] = molecular target: γ-secretase; set-up: method as in PMID 16569643; settings: in vitro γ-secretase assay; read-out: Reported IC50; cited from earlier work
[7] = molecular target: γ-secretase (Aβ40, Aβ42); set-up: method as in PMID 11574530; settings: immunoblotting assay, cited from earlier work
[8] = system: Sup-T1 NICT; set-up: method as in PMID 15319485; settings: Sup-T1 NICT assay; read-out: Reported IC50; cited from earlier work
[9] = system: Aβ1-42; set-up: method as in PMID 10882355; settings: read-out: Reported IC50 (Aβ1-42); cited from earlier work
[10] = molecular target: γ-secretase; set-up: method as in PMID 10913280; settings: HTRF assay; read-out: Reported IC50; cited from earlier work
[11] = S2 cell membrane, mean ± SEM, n = 3, read-out: drosophila γ-secretase IC50

T1 sequence (O02194 whole entry): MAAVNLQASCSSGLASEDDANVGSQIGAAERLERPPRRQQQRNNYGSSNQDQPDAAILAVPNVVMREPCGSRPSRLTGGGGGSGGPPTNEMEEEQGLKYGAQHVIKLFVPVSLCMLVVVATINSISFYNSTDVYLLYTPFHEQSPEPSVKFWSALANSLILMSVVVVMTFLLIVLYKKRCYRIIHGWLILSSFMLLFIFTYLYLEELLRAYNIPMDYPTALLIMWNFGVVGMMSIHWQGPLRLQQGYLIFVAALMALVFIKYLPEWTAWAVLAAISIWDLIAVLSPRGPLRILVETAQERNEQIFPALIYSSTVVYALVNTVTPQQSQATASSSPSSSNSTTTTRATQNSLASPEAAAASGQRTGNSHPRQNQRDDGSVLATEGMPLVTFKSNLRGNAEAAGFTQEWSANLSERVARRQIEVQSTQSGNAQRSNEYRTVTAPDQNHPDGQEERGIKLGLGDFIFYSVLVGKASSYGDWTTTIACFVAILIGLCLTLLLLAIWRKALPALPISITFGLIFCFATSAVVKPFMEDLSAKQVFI
T1 sequence (Q9VC27 23-695 partner): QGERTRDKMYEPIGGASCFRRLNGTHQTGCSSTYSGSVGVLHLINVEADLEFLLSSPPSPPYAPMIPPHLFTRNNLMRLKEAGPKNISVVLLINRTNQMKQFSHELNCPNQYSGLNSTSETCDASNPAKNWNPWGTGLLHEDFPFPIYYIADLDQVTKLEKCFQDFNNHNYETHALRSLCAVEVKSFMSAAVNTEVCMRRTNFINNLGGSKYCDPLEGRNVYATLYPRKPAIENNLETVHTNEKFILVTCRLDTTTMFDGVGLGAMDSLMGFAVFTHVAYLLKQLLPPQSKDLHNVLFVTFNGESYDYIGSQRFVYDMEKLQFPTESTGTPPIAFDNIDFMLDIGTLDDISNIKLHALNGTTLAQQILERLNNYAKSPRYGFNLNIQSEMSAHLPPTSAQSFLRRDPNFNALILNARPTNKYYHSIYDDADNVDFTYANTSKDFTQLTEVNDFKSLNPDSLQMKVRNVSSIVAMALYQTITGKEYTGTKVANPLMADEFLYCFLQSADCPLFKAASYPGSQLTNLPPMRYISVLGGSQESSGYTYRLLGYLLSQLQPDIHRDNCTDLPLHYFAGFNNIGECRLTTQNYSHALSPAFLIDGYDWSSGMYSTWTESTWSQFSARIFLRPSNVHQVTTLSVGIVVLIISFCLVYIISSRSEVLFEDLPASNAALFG
T1 sequence (Q9VQG2 whole entry partner): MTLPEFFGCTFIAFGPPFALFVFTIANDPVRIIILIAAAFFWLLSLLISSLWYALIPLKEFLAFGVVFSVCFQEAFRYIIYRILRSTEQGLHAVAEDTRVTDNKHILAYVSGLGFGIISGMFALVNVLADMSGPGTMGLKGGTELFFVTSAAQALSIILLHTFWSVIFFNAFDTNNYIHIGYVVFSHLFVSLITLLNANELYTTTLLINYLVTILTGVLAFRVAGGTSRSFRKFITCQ
T1 sequence (Q86BE9 whole entry partner): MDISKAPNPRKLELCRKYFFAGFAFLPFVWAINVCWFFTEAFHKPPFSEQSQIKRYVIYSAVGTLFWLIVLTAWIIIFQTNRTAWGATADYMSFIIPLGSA

Row | IC50 [1] | IC50 [2, 11] | IC50 [4] | maximal inhibition [4] | SMILES | IC50 [3] | IC50 [2] | IC50 ([5]; read-out: Reported IC50 (Aβ40)) | IC50 ([5]; read-out: Reported IC50 (Aβ42)) | IC50 [6] | IC50 ([7]; read-out: Reported IC50 (Aβ40)) | IC50 ([7]; read-out: Reported IC50 (Aβ42)) | IC50 [8] | IC50 [9] | IC50 [10]
1 | 20.7 ± 5.24 nM | 0.933 ± 0.169 nM | 53.5 ± 13.6 nM | 103.1% | COC(=O)[C@@H](NC(=O)[C@H](CC(C)C)NC(=O)N(Cc1ccccc1)C[C@@H](O)[C@H](Cc1ccccc1)NC(=O)OC(C)(C)C)C(C)C [31C] | 300 nM |  |  |  |  |  |  |  |  | 
2 | 1.45 ± 0.435 nM | 6.97 ± 1.98 nM | 12.5 ± 5.76 nM | 95.2% | C[C@H](NC(=O)Cc1cc(F)cc(F)c1)C(=O)N[C@@H]1C(=O)N(C)c2ccccc2-c2ccccc21 [DBZ] |  |  |  |  |  |  |  | 1.7 nM |  | 
3 |  |  | 44500 ± 25600 nM | 67.3% | CC12CCC(C1)C(C)(C)C2NS(=O)(=O)c1ccc(F)cc1 (stereo not drawn) [Inhibitor VI] |  |  |  |  |  |  |  |  | 1800 nM | 
4 | 0.976 ± 0.147 nM | 10.3 ± 1.66 nM | 4.43 ± 0.969 nM |  | CC(C)C[C@H](NC(=O)[C@H](Cc1ccccc1)C[C@@H](O)[C@H](Cc1ccccc1)NC(=O)OC(C)(C)C)C(=O)N[C@@H](Cc1ccccc1)C(N)=O [L685,458] |  |  |  |  | 3 nM | 4 nM | 8 nM |  |  | 17 nM

Row | SMILES | IC50 [1] | IC50 [2, 11] | IC50 [4] | maximal inhibition [4] | IC50 [3] | IC50 [2] | IC50 ([5]; read-out: Reported IC50 (Aβ40)) | IC50 ([5]; read-out: Reported IC50 (Aβ42)) | IC50 [6] | IC50 ([7]; read-out: Reported IC50 (Aβ40)) | IC50 ([7]; read-out: Reported IC50 (Aβ42)) | IC50 [8] | IC50 [9] | IC50 [10]
5 | C[C@H](NC(=O)Cc1cc(F)cc(F)c1)C(=O)N[C@H]1N=C(c2ccccc2)c2ccccc2N(C)C1=O [Compound E] | 2.4 ± 0.605 nM |  | 53.9 ± 5.31 nM | 92.3% |  | 40.5 ± 7 nM | 0.8 nM | 7 nM | 7 nM | 0.24 nM | 0.37 nM |  |  | 
6 | C[C@H](NC(=O)Cc1cc(F)cc(F)c1)C(=O)N[C@H](C(=O)OC(C)(C)C)c1ccccc1 [DAPT, N-[N-(3,5-difluorophenacetyl)-L-alanyl]-S-phenylglycine t-butyl ester] |  |  | 3910 ± 551 nM | 69.7% |  |  | 1600 nM | 4000 nM |  |  |  |  |  | 
